2 compounds from patent publication US8071325B2, “Flow cytometric method and kit for metal-induced sensitivity” (The Trustees of the University of Pennsylvania, priority 2004, dated 2011) can be followed below.

Assay [1] deals with CFSE-labeled peripheral blood lymphocytes (CD3+, CD3+/CD4+, CD3+/CD8+ T cells). Description: CFSE dye dilution proliferation measured by flow cytometry. It counts as cell-based, human. The note with it: for proliferative ratio (PR, %M2/%M1): mean +/- SEM. The procedure: Cell surface marker staining was performed. The following monoclonal antibodies were used: Phycoerythin (PE) conjugated anti-human CD4, Tricolor-conjugated anti-human CD3, Allophycocyanin (APC) conjugated anti-human CD8 (Caltag, Burlingame, Calif.). The vital dye TO-PRO®-3 (Molecular Probes Inc., Eugene, Oreg.) was used to discriminate live and dead cells.
The CFSE labeling method was adapted from a previously described protocol. Aliquots of the same PBL sample used in the BeLPT assay were split and washed three times in 10 ml of phosphate buffered saline (dPBS, Gibco BRL, Grand Island, N.Y.) at room temperature. The cells were adjusted to 10^6 cells per milliliter, and CFSE (Molecular Probes, Eugene, Oreg.) was added at a final concentration of 1 μM/ml. The cells were vortexed for ten seconds and then incubated for ten minutes in the dark at room temperature with gentle shaking. After incubation an equal volume of sterile, heat inactivated human serum (Gibco BRL, Grand Island, N.Y.) was added to the sample for one minute to quench the reaction. The cells were washed twice, adjusted to the concentration 2×10^6/ml in 10% human heat inactivated serum.
Following CFSE (carboxy fluorescein diacetate succinimide ester) labeling, the cells were cultured in 24-well plates at 2×10^6 per well in the presence of either media alone, PHA, Candida, or either 10 or 100 μM of beryllium sulfate. The cells were incubated for seven days at 37° C. and 5% CO2. Preliminary experiments titrated the optimal dose of CFSE and time of incubation. Surface labeling was performed at the time of harvest using CD3TC, CD4PE and CD8APC in some experiments. TO-PRO®-3 was added to define live cells in some experiments.
All data were acquired on a four-color, dual laser FACSCalibur (Becton Dickinson, San Jose, Calif.). CFSE was measured in Fl-1 channel (530/30-nm bandpass filter), CD4PE in the Fl-2 channel (585/42-nm bandpass filter), CD3TC in the Fl-3-channel (670-nm longpass filter) using excitation from the 488 nm blue laser and TO-PRO®-3 or CD8APC in Fl-4 channel (661/16 bandpass filter) by excitation using the 635 nm red diode laser. Compensation for CFSE in multiparameter flow cytometry is dose dependent and determined empirically.
The basic analysis gating strategy was as follows (FIG. 1): for analysis of CD3+ T cells alone, an initial region was defined as lymphocytes by light scatter and a broad region was set to include medium to high forward/low side scatter events after stimulation with PHA (FIG. 1A, R1) to include all proliferating lymphocytes. For CD3+ T cells, the R1 data were plotted in a contour plot of CD3TC versus TO-PRO®-3 to identify the live CD3+ T Cells (FIG. 1B, R2). The R2 population was expressed on a contour plot of CD3+CD4+ where a double positive region was defined as R3 (FIG. 1C). For final analyses, each population was then analyzed for CFSE (FL1) fluorescence, representing proliferation, on a single parameter histogram using a logical gate of either R1*R2 for CD3+ cells only and R1*R2*R3 for CD3+4+ cells. In experiments where only data from CD3+ or CD3+4+ cells were collected, a live gate on TO-PRO®-3 negative (“viable”) cells was also used in acquisition. When specific CD4+ and CD8+ T cell determination was performed, the viability dye was eliminated. The strategy was similar to that above with light scatter gating (R1) followed by identification of the CD3+ events using a SSC vs CD3+ plot (R2) and CD4+ (R3) and CD8+(R4) identification followed by single parameter histogram analysis of the CFSE fluorescence (for CD4+, R1*R2*R3; for CD8, R1*R2*R4*).
CFSE flow cytometric data files were analyzed using CellQuest™ acquisition/analysis software (Becton Dickinson, San Jose, Calif.). Fifty thousand (50,000) events were collected. The data are reported as the proliferative ratio (PR) defined as the ratio of the percentage of divided cells to undivided cells on day 7 (%M2/%M1). […]
(A flow cytometer gives signals particle by particle.)

For assay [2], the system named is Peripheral blood lymphocytes (PBLs). The experiment in a line: Blood BeLPT (3H-thymidine incorporation assay). It counts as cell-based, human. The settings on record: for stimulation index (SI): mean ± SEM. The procedure: Beryllium workers (present and former), referred to the Hospital of the University of Pennsylvania (HUP) for possible CBD, were tested. […] CBD was diagnosed when there was evidence of BH with granulomas on biopsy and/or radiologic changes consistent with a granulomatous process. Normal unexposed volunteers were used as controls.
Peripheral blood lymphocytes (PBLs) were isolated from heparinized blood under sterile conditions using density centrifugation with lymphocyte separation medium (ICN Biomedicals Inc., Aurora, Ohio). Blood BeLPT was performed. The cells were cultured at a concentration of 2.5×10^5 cells/well. Stimulants included 500 μg/ml of phytohemagglutinin (PHA) (L-9132; Sigma Chemical Co., St Louis, Mo.), 20 μl/ml of Candida(M15; Greer Labs, Lenoir, N.C.) and 100 μM or 10 μM of beryllium sulfate (Blush Wellman, Cleveland, OH). After culturing the cells in an incubator (5% CO2 and 37° C.) for 3, 5 or 7 days, the cells were pulsed with ^3H thymidine (DuPont NEN, Boston, Mass.) overnight (ice. 16-24 hours) and then harvested on a filter fiber (Wallac, Turku, Finland). The uptake of ^3H thymidine was measured as counts per minute (CPM) using a Wallac 1205 beta plate liquid scintillation system (Wallac Inc., Gaithersburg, Md.). Results were expressed as a stimulation index (SI=mean CPM of test wells/mean CPM of control wells). A positive response was defined as a SI>3.0 for blood A positive test required that a positive response be recorded on two different days or at two different concentrations of beryllium.
All values are presented as ± SEM (standard error of the mean). Data are only presented if a minimum of 1,000 cells were detected within a population. For the tritiated thymidine test, the results were expressed as a stimulation index and group differences (between controls and beryllium-sensitive populations) were evaluated using the Student's T test. For the CFSE tests, since the results were expressed as PR, the Mann-Whitney version of the […] was used to determine if there was a difference between the normal donors and the beryllium exposed patients. Statistical significance was defined as p<0.05.
In general terms: Incorporation of labelled thymidine or its analogues reports DNA synthesis.

Marks after values point to notes of the source that are not given here.

As for phytohemagglutinin [PHA], the “CFSE-determined response (in words)” value in assay [1] (CD3+ and CD3+CD4+ cells from both the control and the beryllium-sensitive populations) is on record as “positive responses”; in assay [1] (CD3+, CD3+/CD4+ and CD3+/CD8+ T cells from controls (n=6) and beryllium-sensitized (n=14) populations), “responded”. Further, the “proliferative ratio (PR, %M2/%M1)” value stood at 15.756 ± 5.094 in assay [1] (CD3+/CD4+, PHA, day 7, beryllium-exposed sensitized (n = 24)); 10.064 ± 2.753 in assay [1] (CD3+/CD4+, PHA, day 7, normal controls (n = 9)); 10.358 ± 4.730 in assay [1] (CD3+, PHA, day 7, beryllium-exposed sensitized (n = 24)); 9.853 ± 2.908 in assay [1] (CD3+, PHA, day 7, normal controls (n = 9)). In addition, the “stimulation index (SI)” value in assay [2] (Day 3, PHA 500 μg/ml, beryllium-exposed sensitized (n = 24)) worked out at 178 ± 23.2; in assay [2] (Day 3, PHA 500 μg/ml, normal controls (n = 9)) it was 137 ± 38.9. In assay [2] (control and beryllium-sensitized populations, PHA on day 3, Candida on day 5 and on day 7), the “proliferative response by thymidine incorporation (in words)” value is “Positive responses”.

Take `O=S(=O)([O-])[O-].[Be+2]` [Be, beryllium sulfate]: the “CFSE-determined response, sensitized versus controls (in words)” value in assay [1] (CD3+ and CD3+/CD4+ T cells from beryllium-sensitized subjects, both doses) is on record as “significant difference”. The “CFSE-determined response (in words)” value in assay [1] (CD3+ or CD3+/CD4+ high cells from controls, 10 or 100 μM) is “minimal response”; in assay [1] (beryllium-sensitive population, CD3+ population, 10 μM, p<0.05), “significant positive response”; in assay [1] (beryllium-sensitive population, CD3+/CD4+ population, 10 μM and 100 μM, p<0.05), “significant positive response”. For the same compound, the “proliferative ratio (PR, %M2/%M1)” value in assay [1] (CD3+/CD4+, Be 10 μM, day 7, beryllium-exposed sensitized (n = 24)) stood at 0.105 ± 0.038; in assay [1] (CD3+/CD4+, Be 10 μM, day 7, normal controls (n = 9)), 0.027 ± 0.005; in assay [1] (CD3+/CD4+, Be 100 μM, day 7, beryllium-exposed sensitized (n = 24)) it was 0.089 ± 0.027; in assay [1] (CD3+/CD4+, Be 100 μM, day 7, normal controls (n = 9)), 0.029 ± 0.010; in assay [1] (CD3+, Be 10 μM, day 7, beryllium-exposed sensitized (n = 24)) it was 0.115 ± 0.046; in assay [1] (CD3+, Be 10 μM, day 7, normal controls (n = 9)) it was 0.027 ± 0.005. Moreover, the “proliferative ratio (PR, %M2/%M1)” value in assay [1] (CD3+, Be 100 μM, day 7, beryllium-exposed sensitized (n = 24)) is given as 0.099 ± 0.026; in assay [1] (CD3+, Be 100 μM, day 7, normal controls (n = 9)) it was 0.030 ± 0.008; in assay [1] (Table 3 series (CD8 APC staining), CD3+, Be 10 μM, beryllium-exposed sensitized (n = 14)) it was 0.156 +/− 0.114‡; in assay [1] (Table 3 series (CD8 APC staining), CD3+, Be 10 μM, normal controls (n = 6)) it was 0.012 +/− 0.002^†; in assay [1] (Table 3 series (CD8 APC staining), CD3+, Be 100 μM, beryllium-exposed sensitized (n = 14)) it was 0.188 +/− 0.137‡; in assay [1] (Table 3 series (CD8 APC staining), CD3+, Be 100 μM, normal controls (n = 6)) it was 0.013 +/− 0.002. Further, the “proliferative ratio (PR, %M2/%M1)” value is recorded as 0.164 +/− 0.112‡ in assay [1] (Table 3 series, CD4+ (CD3+/CD4+), Be 10 μM, beryllium-exposed sensitized (n = 14)); 0.015 +/− 0.003 in assay [1] (Table 3 series, CD4+ (CD3+/CD4+), Be 10 μM, normal controls (n = 6)); 0.210 +/− 0.114‡ in assay [1] (Table 3 series, CD4+ (CD3+/CD4+), Be 100 μM, beryllium-exposed sensitized (n = 14)); 0.015 +/− 0.002 in assay [1] (Table 3 series, CD4+ (CD3+/CD4+), Be 100 μM, normal controls (n = 6)); 0.016 +/− 0.003 in assay [1] (Table 3 series, CD8+ (CD3+/CD8+), Be 10 μM, beryllium-exposed sensitized (n = 11)); 0.013 +/− 0.003 in assay [1] (Table 3 series, CD8+ (CD3+/CD8+), Be 10 μM, normal controls (n = 4)). In addition, the “proliferative ratio (PR, %M2/%M1)” value in assay [1] (Table 3 series, CD8+ (CD3+/CD8+), Be 100 μM, beryllium-exposed sensitized (n = 11)) is 0.019 +/− 0.002; in assay [1] (Table 3 series, CD8+ (CD3+/CD8+), Be 100 μM, normal controls (n = 4)), 0.011 +/− 0.004. The “CFSE-determined response, sensitized versus normal donors (in words)” value in assay [1] (CD8+ T cells, normal donors or beryllium-sensitized individuals) is “no differences were noted”. Also, the “stimulation index (SI)” value amounted to 12.1 ± 3.96 in assay [2] (Day 5, Be 10 μM, beryllium-exposed sensitized (n = 24)); 0.72 ± 0.08 in assay [2] (Day 5, Be 10 μM, normal controls (n = 9)); 12.8 ± 4.93 in assay [2] (Day 5, Be 100 μM, beryllium-exposed sensitized (n = 24)); 0.74 ± 0.09 in assay [2] (Day 5, Be 100 μM, normal controls (n = 9)); 12.5 ± 4.43 in assay [2] (Day 7, Be 10 μM, beryllium-exposed sensitized (n = 24)); 0.44 ± 0.08 in assay [2] (Day 7, Be 10 μM, normal controls (n = 9)). The “stimulation index (SI)” value in assay [2] (Day 7, Be 100 μM, beryllium-exposed sensitized (n = 24)) is given as 11.5 ± 4.86; in assay [2] (Day 7, Be 100 μM, normal controls (n = 9)), 0.52 ± 0.12. Also, the “proliferative response by thymidine incorporation (in words)” value in assay [2] (beryllium-sensitized population, p<0.05) is listed as “positive responses were noted”; in assay [2] (control group) it was “positive responses to beryllium were not noted”.
